Data reported in ChEMBL document CHEMBL1201862, “PubChem BioAssay data set” (2004).
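Results reflect a 48-hour exposure of cells in 96-well plates to compound at five concentrations. At the GI50, growth is halved.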 The source made the active and inactive calls. No stated cut-off is given here; in the data, active = GI50 up to about 1.1 µM and inactive = higher.

Tests used:
Assay in all cases: NCI-60 cell line screen, 48 h
U-251 = test system: U-251
Malme-3M = test system: Malme-3M
EKVX = test system: EKVX
SK-OV-3 = test system: SK-OV-3
SW-620 = test system: SW-620
KM12 = test system: KM12
NCI-H460 = test system: NCI-H460
M14 = test system: M14
786-0 = test system: 786-0
SNB-19 = test system: SNB-19
K562 = test system: K562
A549 = test system: A549
SN12C = test system: SN12C
NCI/ADR-RES = test system: NCI/ADR-RES
SNB-75 = test system: SNB-75
MCF7 = test system: MCF7
MOLT-4 = test system: MOLT-4
IGROV-1 = test system: IGROV-1
OVCAR-8 = test system: OVCAR-8
BT-549 = test system: BT-549

Row | SMILES | GI50 (U-251) | GI50 (Malme-3M) | GI50 (EKVX) | GI50 (SK-OV-3) | GI50 (SW-620) | GI50 (KM12) | GI50 (NCI-H460) | GI50 (M14) | GI50 (786-0) | GI50 (SNB-19) | GI50 (K562) | GI50 (A549) | GI50 (SN12C) | GI50 (NCI/ADR-RES) | GI50 (SNB-75) | GI50 (MCF7) | GI50 (MOLT-4) | GI50 (IGROV-1) | GI50 (OVCAR-8) | GI50 (BT-549)
1 | C/C(=N\NC(=S)N1CCC(N2CCCCC2)CC1)c1ccccn1 | 3.8 µM (inactive) | > 100 µM (inactive) | 3.4 µM (inactive) | 4.93 µM (inactive) | 3.1 µM (inactive) | 2.81 µM (inactive) | 2.73 µM (inactive) | 1.87 µM (inactive) | 12.7 µM (inactive) | 3.7 µM (inactive) | 1.29 µM (inactive) | 3.15 µM (inactive) | 2.7 µM (inactive) | 2.26 µM (inactive) | 2.87 µM (inactive) | 2.87 µM (inactive) | 0.586 µM (active) | 3.54 µM (inactive) | 3.21 µM (inactive) | –
2 | CC1C(O)=C(O)c2ccccc2N1O (centres undefined) | > 100 µM (inactive) | > 100 µM (inactive) | > 100 µM (inactive) | > 100 µM (inactive) | 98.9 µM (inactive) | > 100 µM (inactive) | > 100 µM (inactive) | > 100 µM (inactive) | > 100 µM (inactive) | > 100 µM (inactive) | 38.7 µM (inactive) | > 100 µM (inactive) | > 100 µM (inactive) | – | > 100 µM (inactive) | – | 77.6 µM (inactive) | > 100 µM (inactive) | > 100 µM (inactive) | –
3 | CC1(C=O)CCC23COC4(CCC5C6(C)CCC(OC7OCC(OC8OC(CO)C(O)C(OC9OC(CO)C(O)C(O)C9O)C8OC8OCC(O)C(O)C8O)C(O)C7OC7OC(CO)C(O)C(O)C7O)C(C)(C)C6CCC5(C)C4(C)CC2O)C3C1 (centres undefined) | 2.34 µM (inactive) | – | 1.5 µM (inactive) | 1.28 µM (inactive) | 0.628 µM (active) | 0.0474 µM (active) | 1.29 µM (inactive) | 1.52 µM (inactive) | 1.2 µM (inactive) | 0.198 µM (active) | 3.1 µM (inactive) | 1.63 µM (inactive) | – | 0.264 µM (active) | 1.26 µM (inactive) | 0.822 µM (active) | 0.367 µM (active) | 1.42 µM (inactive) | 0.365 µM (active) | 1.57 µM (inactive)
4 | C=CCCCCCCCCCP(=O)(c1ccccc1)c1ccc2c(c1)OCCOCCOCCOCCO2 (centres undefined) | 15.9 µM (inactive) | 17.7 µM (inactive) | 19.6 µM (inactive) | 20.2 µM (inactive) | 16 µM (inactive) | 12.8 µM (inactive) | 13.2 µM (inactive) | > 100 µM (inactive) | 16.3 µM (inactive) | 13.1 µM (inactive) | 9.42 µM (inactive) | 14.6 µM (inactive) | 16.3 µM (inactive) | – | 18.5 µM (inactive) | – | 9.75 µM (inactive) | 16 µM (inactive) | 15.9 µM (inactive) | –
5 | CN(C)CC1CC/C(=C\c2ccc(Cl)c(Cl)c2)C1=O (centres undefined) | > 42.3 µM (inactive) | > 62.5 µM (inactive) | 39.3 µM (inactive) | > 100 µM (inactive) | 24.3 µM (inactive) | 11.5 µM (inactive) | 17.4 µM (inactive) | 18.9 µM (inactive) | 11.7 µM (inactive) | 37.3 µM (inactive) | 5.58 µM (inactive) | > 100 µM (inactive) | > 38.9 µM (inactive) | – | > 41.7 µM (inactive) | – | 4.76 µM (inactive) | > 50.4 µM (inactive) | 25.6 µM (inactive) | –
6 | Cc1ccc(CCNC(=S)SCC(NC(=O)CCC(N)C(=O)O)C(=O)NCC(=O)O)cc1 (centres undefined) | 1.87 µM (inactive) | 2.01 µM (inactive) | 6.19 µM (inactive) | 7.4 µM (inactive) | 0.767 µM (active) | 0.533 µM (active) | 2.61 µM (inactive) | 1.22 µM (inactive) | 0.385 µM (active) | 2.17 µM (inactive) | 0.398 µM (active) | 3.57 µM (inactive) | 1.76 µM (inactive) | – | 0.435 µM (active) | – | 1.23 µM (inactive) | 2.11 µM (inactive) | 2 µM (inactive) | –
7 | Cc1cc(N(CCC#N)CCC#N)ccc1/C=C(/NC(=O)/C=C/c1ccccc1)C(N)=O | > 100 µM (inactive) | > 100 µM (inactive) | > 100 µM (inactive) | > 100 µM (inactive) | > 100 µM (inactive) | > 100 µM (inactive) | > 100 µM (inactive) | > 100 µM (inactive) | > 100 µM (inactive) | > 100 µM (inactive) | 62.1 µM (inactive) | > 100 µM (inactive) | > 100 µM (inactive) | – | > 100 µM (inactive) | – | > 100 µM (inactive) | > 100 µM (inactive) | > 100 µM (inactive) | –
8 | CN(C)C1(C(=O)O)CC1 | > 100 µM (inactive) | > 100 µM (inactive) | > 100 µM (inactive) | – | > 100 µM (inactive) | – | > 100 µM (inactive) | > 100 µM (inactive) | > 100 µM (inactive) | > 100 µM (inactive) | > 100 µM (inactive) | > 100 µM (inactive) | > 100 µM (inactive) | > 100 µM (inactive) | > 100 µM (inactive) | > 100 µM (inactive) | > 100 µM (inactive) | > 100 µM (inactive) | > 100 µM (inactive) | –
